{
  "source": "patent EP2878292A2",
  "about": "“Application of cosmetic compositions for the inactivation and/or elimination of skin mites” (Henkel AG & Co. KGaA, priority 2013, dated 2015)",
  "test_system": "Haustaubmilben",
  "format": "in vivo",
  "protocol": "Die zu testende Substanz wurde mit Wasser auf die vorgesehene Einsatzkonzentration verdünnt (s.u.). Haustaubmilben, die aufgrund ihrer großen Ähnlichkeit als Vergleich zu Haarbalgmilben (Demodex) verwendet werden, wurden aus ihrem Futter isoliert und auf 1,5 cm x 1,5 cm große Filterpapierstücke übertragen. Etwa 100 Milben je Ansatz wurden mit 50 µl der zu testenden Substanzen in den vorhergesehenen Verdünnungen betropft. Die überschüssige Flüssigkeit wurde nach 10 Sekunden abgesaugt. Die noch feuchten Filterpapiere mit den Milben wurden nach der Behandlung in eine Petrischale gebracht, die mit einem Deckel und einer Umrandung mit Paraffin verschlossen wurden, um sicherzustellen, dass evtl. überlebende Milben nicht entweichen können. Die Milben können nach Beginn einer Behandlung - gleichgültig mit welchem Mittel - unbeweglich werden, sich jedoch später wieder erholen und ihre Beweglichkeit zumindest für kurze Zeit wiedererlangen. Andererseits ist es auch möglich, dass Milben in den ersten Stunden nach einer Behandlung noch vital erscheinen, jedoch bereits so stark geschädigt sind, dass sie innerhalb eines Tages bis zu 2-3 Tagen sterben. Daher wurden die Petrischalen für einen Tag aufbewahrt, und die Milben dann erst auf ihre Vitalität bewertet.\nDie Anzahl der toten und lebenden Milben wurde bestimmt und in % der Sterberate umgerechnet.\nDie Versuche wurden zweifach durchgeführt. […]",
  "data": [
    {"smiles": "CCCCCCCCC(O)CO", "note": "(centres unmarked) [Symclariol, 1,2-Decanediol]", "values": [
      {"measurement": "Inaktivierung bzw. Eliminierung von Milben", "setting": "conclusion in words drawn from the test at 2%", "result": "wirksam"},
      {"measurement": "Sterberate (Mittelwert)", "setting": "house dust mite, in vivo, topical, 24 h", "result": "10,9%"}
    ]}
  ]
}
